Test results published in ChEMBL document CHEMBL1201862, “PubChem BioAssay data set” (2004).
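Briefly, cells in 96-well plates were exposed to five compound concentrations for 48 h, and endpoints were estimated by linear interpolation. Here, GI50 denotes the concentration required for 50% inhibition of growth.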 Activity calls are given as the source filed them. No stated cut-off is given here; in the data, active = GI50 up to about 1.1 µM and inactive = higher.

Columns and labels:
Experiment in all cases: NCI-60 cell line screen, 48 h
[1] = tested on: HT-29
[2] = tested on: SF-268
[3] = tested on: HCT-15
[4] = tested on: 786-0
[5] = tested on: NCI-H226
[6] = tested on: SF-295
[7] = tested on: SK-OV-3
[8] = tested on: MDA-N
[9] = tested on: LOX IMVI
[10] = tested on: UACC-62
[11] = tested on: SN12C
[12] = tested on: DU-145
[13] = tested on: MCF7
[14] = tested on: OVCAR-4
[15] = tested on: KM12
[16] = tested on: SNB-75
[17] = tested on: SW-620
[18] = tested on: U-251
[19] = tested on: HOP-62
[20] = tested on: NCI-H460
[21] = tested on: RPMI-8226
[22] = tested on: SK-MEL-28
[23] = tested on: SK-MEL-2
[24] = tested on: BT-549
[25] = tested on: A549
[26] = tested on: OVCAR-3
[27] = tested on: MDA-MB-435
[28] = tested on: COLO 205
[29] = tested on: OVCAR-8
[30] = tested on: HCT-116
[31] = tested on: MOLT-4
[32] = tested on: HL-60
[33] = tested on: CAKI-1
[34] = tested on: UO-31
[35] = tested on: SK-MEL-5
[36] = tested on: EKVX
[37] = tested on: SR
[38] = tested on: ACHN
[39] = tested on: A498
[40] = tested on: RXF 393
[41] = tested on: HCC 2998
[42] = tested on: OVCAR-5
[43] = tested on: T47D
[44] = tested on: NCI-H23
[45] = tested on: IGROV-1
[46] = tested on: M14
[47] = tested on: CCRF-CEM
[48] = tested on: Hs-578T
[49] = tested on: NCI-H522
[50] = tested on: SF-539
[51] = tested on: HOP-92
[52] = tested on: PC-3
[53] = tested on: K562
[54] = tested on: NCI/ADR-RES
[55] = tested on: UACC-257
[56] = tested on: SNB-19
[57] = tested on: TK-10
[58] = tested on: Malme-3M
[59] = tested on: MDA-MB-231

CCOC(=O)Cn1nnc2cc(Nc3nc4ccccc4nc3C(=O)OCC)ccc21
GI50 [1]: > 100 µM (inactive) | GI50 [2]: 22.5 µM (inactive) | GI50 [3]: > 100 µM | GI50 [4]: 67 µM (inactive) | GI50 [5]: > 100 µM (inactive) | GI50 [6]: 26.4 µM (inactive) | GI50 [7]: 50.2 µM (inactive) | GI50 [8]: > 100 µM (inactive) | GI50 [9]: > 100 µM (inactive) | GI50 [10]: > 100 µM (inactive) | GI50 [11]: > 100 µM (inactive) | GI50 [12]: > 100 µM (inactive) | GI50 [13]: > 100 µM (inactive) | GI50 [14]: > 100 µM (inactive) | GI50 [15]: > 100 µM (inactive) | GI50 [16]: 4.21 µM (inactive) | GI50 [17]: > 100 µM (inactive) | GI50 [18]: 36 µM (inactive) | GI50 [19]: 24.4 µM (inactive) | GI50 [20]: > 100 µM (inactive) | GI50 [21]: > 100 µM (inactive) | GI50 [22]: > 100 µM (inactive) | GI50 [23]: 78.2 µM (inactive) | GI50 [24]: > 100 µM (inactive) | GI50 [25]: > 100 µM (inactive) | GI50 [26]: > 100 µM (inactive) | GI50 [27]: > 100 µM (inactive) | GI50 [28]: > 100 µM (inactive) | GI50 [29]: 49.7 µM (inactive) | GI50 [30]: > 100 µM (inactive) | GI50 [31]: > 100 µM (inactive) | GI50 [32]: > 100 µM (inactive) | GI50 [33]: > 100 µM (inactive) | GI50 [34]: 2 µM (inactive) | GI50 [35]: > 100 µM (inactive) | GI50 [36]: 33.7 µM (inactive) | GI50 [37]: > 100 µM (inactive) | GI50 [38]: > 100 µM (inactive) | GI50 [39]: 46.1 µM (inactive) | GI50 [40]: 18.6 µM (inactive) | GI50 [41]: > 100 µM (inactive) | GI50 [42]: > 100 µM (inactive) | GI50 [43]: > 100 µM (inactive) | GI50 [44]: > 100 µM (inactive) | GI50 [45]: > 100 µM (inactive) | GI50 [46]: > 100 µM (inactive) | GI50 [47]: > 100 µM (inactive) | GI50 [48]: 36.5 µM (inactive) | GI50 [49]: > 100 µM (inactive) | GI50 [50]: 17.3 µM (inactive) | GI50 [51]: 20.9 µM (inactive) | GI50 [52]: > 100 µM (inactive) | GI50 [53]: > 100 µM (inactive) | GI50 [54]: 64.9 µM (inactive) | GI50 [55]: > 100 µM (inactive) | GI50 [56]: 29 µM (inactive) | GI50 [57]: 22.5 µM (inactive) | GI50 [58]: > 100 µM (inactive)

CCN(CC)c1nc(N(C)C)c2cc(OC)ccc2n1
GI50 [1]: 10.2 µM (inactive) | GI50 [2]: 25.8 µM (inactive) | GI50 [3]: 30.6 µM | GI50 [4]: 20.7 µM (inactive) | GI50 [5]: 21.9 µM (inactive) | GI50 [6]: 26.7 µM (inactive) | GI50 [8]: 24.7 µM (inactive) | GI50 [9]: 26.8 µM (inactive) | GI50 [10]: 25.8 µM (inactive) | GI50 [11]: 22.2 µM (inactive) | GI50 [59]: 35.5 µM (inactive) | GI50 [12]: 42.2 µM (inactive) | GI50 [13]: 22.2 µM (inactive) | GI50 [14]: 43.6 µM (inactive) | GI50 [15]: 26.6 µM (inactive) | GI50 [17]: 24 µM (inactive) | GI50 [18]: 27.5 µM (inactive) | GI50 [19]: 92.7 µM (inactive) | GI50 [20]: 20 µM (inactive) | GI50 [21]: 20.1 µM (inactive) | GI50 [22]: 28.3 µM (inactive) | GI50 [23]: 36.6 µM (inactive) | GI50 [24]: 56.4 µM (inactive) | GI50 [25]: 27.9 µM (inactive) | GI50 [26]: 35.6 µM (inactive) | GI50 [27]: 30.1 µM (inactive) | GI50 [28]: 11.7 µM (inactive) | GI50 [29]: 26.2 µM (inactive) | GI50 [30]: 11.2 µM (inactive) | GI50 [31]: 18.5 µM (inactive) | GI50 [32]: 16.6 µM (inactive) | GI50 [33]: 44.6 µM (inactive) | GI50 [34]: 19.3 µM (inactive) | GI50 [35]: 17.4 µM (inactive) | GI50 [36]: 25.1 µM (inactive) | GI50 [37]: 21.9 µM (inactive) | GI50 [38]: 33 µM (inactive) | GI50 [39]: 32.6 µM (inactive) | GI50 [40]: 24.3 µM (inactive) | GI50 [41]: 18.5 µM (inactive) | GI50 [42]: 62.5 µM (inactive) | GI50 [44]: 29.6 µM (inactive) | GI50 [45]: 30.8 µM (inactive) | GI50 [46]: 22.7 µM (inactive) | GI50 [48]: 31.2 µM (inactive) | GI50 [49]: 14.6 µM (inactive) | GI50 [50]: 21.3 µM (inactive) | GI50 [51]: 24.2 µM (inactive) | GI50 [52]: 33.2 µM (inactive) | GI50 [53]: 20.8 µM (inactive) | GI50 [54]: 24.1 µM (inactive) | GI50 [55]: 24.7 µM (inactive) | GI50 [56]: 48.6 µM (inactive) | GI50 [57]: 34.4 µM (inactive) | GI50 [58]: 20.3 µM (inactive)
